Measured values reported in article PMC6934184, “Selective DNA-PKcs inhibition extends the therapeutic index of localized radiotherapy and chemotherapy” (The Journal of Clinical Investigation, 2019).

Biological target: T1, PAK4 (Homo sapiens, UniProt O96013)
T1 construct: purchased Thermo Fisher Scientific (Life Technologies) SelectScreen
Assay: SelectScreen Z'LYTE
Type: biochemical
In short: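 SelectScreen broad panel; activity (Z'LYTE, Adapta) plus binding formats. ATP: Km app for CSF1R Z'LYTE; 10 for CAMK1 Adapta. Readout = % per kinase.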

T1 sequence (O96013 whole entry): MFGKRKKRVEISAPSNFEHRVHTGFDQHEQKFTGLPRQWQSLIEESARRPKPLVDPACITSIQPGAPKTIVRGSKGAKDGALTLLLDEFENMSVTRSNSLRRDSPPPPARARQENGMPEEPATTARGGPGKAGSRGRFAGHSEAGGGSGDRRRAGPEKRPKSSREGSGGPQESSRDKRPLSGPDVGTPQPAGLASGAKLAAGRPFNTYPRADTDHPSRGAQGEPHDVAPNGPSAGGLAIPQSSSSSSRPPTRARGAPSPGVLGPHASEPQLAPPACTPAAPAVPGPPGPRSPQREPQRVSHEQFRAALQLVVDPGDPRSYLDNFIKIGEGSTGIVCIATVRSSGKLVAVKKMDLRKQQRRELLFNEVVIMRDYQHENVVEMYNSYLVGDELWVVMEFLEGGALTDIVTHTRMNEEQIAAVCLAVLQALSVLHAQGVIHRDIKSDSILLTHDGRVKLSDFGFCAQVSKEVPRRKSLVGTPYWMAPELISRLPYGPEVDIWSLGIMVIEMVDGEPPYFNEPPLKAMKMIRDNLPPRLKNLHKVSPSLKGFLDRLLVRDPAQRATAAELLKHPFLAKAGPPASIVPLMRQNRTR

Compound: CN(C(=O)CN1CCOCC1)c1ccc2sc3c(-c4cccc5c(=O)cc(N6CC7CCC(C6)O7)oc45)cccc3c2c1 [NU5455]
- inhibition at 1 µM: -3.3%
